Results as given in patent publication US20240108607A1, “METHOD FOR MANUFACTURING NOVEL NITROGEN-CONTAINING COMPOUND OR SALT THEREOF AND MANUFACTURING INTERMEDIATE OF NOVEL NITROGEN-CONTAINING COMPOUND OR SALT THEREOF” (FUJIFILM Corporation, priority 2015, published 2024).

Tests used:
integrin αvβ3 = integrin αvβ3 (Homo sapiens, UniProt P05106+P06756); test: Integrin αvβ3 binding affinity test (biotinylated vitronectin competition on immobilized integrin); settings: inhibition of biotinylated vitronectin binding
Description: Test Example 1 Integrin […] Binding Affinity Test
(§1) 0.2 μg/mL of δvβ3 was immobilized in a 96-well plates (Corning Incorporated) and then blocked using a 1% Block Ace (DS Pharma Biomedical Co., Ltd.) solution, and then the plate was washed with T-PBS (PBS containing 0.05% Tween 20). A 2× concentrated evaluation compound solution (10× concentration of 3.16× dilution from 0.3 μmol/L, buffer (20 mM Tris-HCl pH 7.5, 150 mM NaCl, 1 mM CaCl2), 1 mM MgCl2, 1 mM MnCl2)) and a 4 μg/mL biotinylated vitronectin solution (labeling vitronectin (Upstate Biotechnology Inc.) by using EZ-Link Sulfo-NHS-Biotinylation Kit (Pierce Protein Biology) and then adjusting concentration) were each added to the plate in an amount of 50 μL, and the plate was shaken for 2 hours at room temperature. The plate was washed with T-PBS, a 0.2 μg/mL avidin·peroxidase (Pierce Protein Biology) was added thereto, and the plate was shaken for 1 hour at room temperature. The plate was washed with T-PBS, an o-phenylenediamine (Sigma-Aldrich Co., LLC.) solution was added thereto such that color was produced (stopped using 4 mol/L sulfuric acid), and the absorbance (490 nm, Reference: 595 nm) was measured. The IC50 value was calculated using XLfit 3.0 (ID Business Solutions Ltd.). For each plate, as a QC sample, RGDfV (Bachem AG) was measured in duplicate. […]

integrin αvβ5 = integrin αvβ5 (Homo sapiens, UniProt P06756+P18084); test: Integrin αvβ5 binding affinity test (biotinylated vitronectin competition on immobilized integrin); settings: inhibition of biotinylated vitronectin binding
Description: Test Example 2 Integrin […] Binding Affinity Test
as §1, with “[…]” for “δvβ3”, “PBST (10 mM Na2HPO4 pH 7.5, 150 mM NaCl, 0.01%” for “T-PBS (PBS containing 0.05%”, “[…],” for “μmol/L,”, “PBST,” for “T-PBS,”, “[…] avidin-peroxidase” for “μg/mL avidin·peroxidase”

U87MG cells [1] = test: Radioactivity concentration of labeled compounds in tumor, U87MG subcutaneous transplantation; assay type: in vivo, mice (Balb/c AJcl-nu/nu); settings: caudal vein, 111In 740 kBq, 64Cu and 90Y 500 kBq
Description: Test Example 3 Evaluation based on radioactivity concentration of ^111In-labeled compound, ^64Cu-labeled compound, and ^90Y-labeled compound in tumor
After 2 to 3 weeks, at a point in time when the tumor volume became 200 to 500 mm^3, 3 mice were sorted into one group at each point in time. The ^111In-labeled compound (740 k Bq) was administered into the caudal vein, the animals were sacrificed after a certain period of time, and the tumor was extracted. The weight of the tumor was measured, the radioactivity was measured using a gamma counter, and the radioactivity concentration in tumor (% ID/g) was calculated. For the ^64Cu-labeled compound (500 k Bq) and the ^90Y-labeled compound (500 k Bq), the radioactivity concentration in tumor (% ID/g) was calculated by the same method.

U87MG cells [2] = test: Imaging of integrin expression tumor by PET; assay type: in vivo, mice (Balb/c AJcl-nu/nu); settings: 48 hours after administration, 4.8 MBq/mouse caudal vein
Description: Test Example 4 Imaging of Integrin Expression Tumor by Positron Emission Tomography (PET) Using [^64Cu]-(Compound A) and [^64Cu]-(Compound B)
After 2 weeks, [^64Cu]-(compound A) was administered at 4.8 MBq/mouse into the caudal vein of the mice with a tumor having a volume of […] to 650 mm^3. After 1, 4, 24, and 48 hours, the mice were imaged by microPET/CT (Inveon, Siemens Healthcare GmbH) under isoflurane anesthesia. […], whole blood was collected from the postcava under deep isoflurane anesthesia, the animals were euthanised, and then the tumor was extracted. The weight of the tumor was measured, the radioactivity was measured using a gamma counter, and the radioactivity concentration in tumor (% ID/g) was calculated. For [^64Cu]-(compound B), imaging was performed by the same method.
FIGS. 1 and 2 show PET images relating to each compound captured at each point in time. […] As a result, a hematoma matching with the image was found in the central portion. At the time of dissection (48 hours after administration), the radioactivity concentration in tumor was 5.6% ID/g.

[3] = Absorbed dose in a human being simulated with OLINDA/EXM 1.0 from monkey organ distribution
Description: Blood was collected from a crab-eating macaque over time, and by using [^111In]-(compound A), from the radioactivity concentration in the blood, kinetic parameters of the compound in blood were calculated by OLINDA/EXM 1.0. Furthermore, by using [^111In]-(compound A), from the organ distribution obtained by imaging, the absorbed dose of each organ obtained in a case where the compound is administered to a human being was calculated using OLINDA/EXM 1.0. [^111In]-(compound A) (98 MBq/9.3 μg) was administered to a crab-eating macaque (Hamri Co., Ltd., males, 3-year-old, 3.4 kg) under anesthesia. After the administration, blood was collected over time, and imaging was performed using a gamma camera. The blood was collected 10, 30, and 60 minutes after the administration and 2, 4, 5, 6, 24, 48, 72, and 144 hours after the administration. Regarding the imaging, after 1, 2, 4, 6, 24, 48, 72, and 144 hours, planar imaging was performed using a gamma camera (Symbia, Siemens Healthcare GmbH). Regarding the anesthesia, the animal was anesthetized with ketamine at 20 mg/kg before the administration of [^111In]-(compound A) and kept anesthetized until the end of imaging, which was continued for 6 hours after the administration, by inhalation anesthesia (isofluran 2 to 3%, 5 to 8 L/min). After 24 hours, ketamine (20 mg/kg) and xylazine (2 mg/kg) were administered to perform blood collection and imaging.
Furthermore, by using exposure dose analysis software OLINDA/EXM 1.0, the absorbed dose in a human being was simulated using each of the labeled compounds, and the results are shown below.

[4] = Radiochemical purity after standing at room temperature (reversed-phase TLC); assay type: physicochemical; settings: 22 hours
Description: A indium [^111In] chloride solution (80 MBq, 100 μL) was added to a mixture of the compound A (8.5 μg) and a 0.2 mol/L sodium acetate buffer solution (pH 4.0) (1.5 mL). The solution was heated to 100° C. for 15 minutes and then left to stand for 5 minutes at room temperature, thereby obtaining [^111In]-(compound A). […] The radiochemical purity measured immediately after the compound was prepared and measured after 24 hours at room temperature was equal to or higher than 95%.
A yttrium [^90Y] chloride solution (700 MBq, 240 μL) was added to a mixture of the compound (79 μg), gentisic acid (1.8 mg), a 0.6 mol/L sodium acetate buffer solution (pH 4.0, 120 μL), and 0.4 mol/L aqueous sodium hydroxide solution (24 μL). The solution was heated to 100° C. for 20 minutes and then left to stand for 5 minutes at room temperature, thereby obtaining [90^Y]-(compound A). […] The radiochemical purity measured immediately after the compound was prepared and measured after 24 hours at room temperature was equal to or higher than 95%.
A copper [^64Cu] chloride solution (pH 5, 35 MBq, 55 μL) was added to a mixture of the compound A (5.8 μg) and 0.2 mol/L sodium acetate buffer solution (pH 4.0, 219 μL). The solution was heated to 100° C. for 15 minutes and left to stand for 5 minute at room temperature, thereby obtaining [^64Cu]-(compound A). […] The radiochemical purity measured immediately after the compound was prepared and measured after 22 hours at room temperature was equal to or higher than 90%.
A 0.2 mol/L sodium acetate buffer solution of Copper [^64Cu] chloride (pH 4.0) (40 MBq, 155 μL) was added to a mixture of the compound B (4.2 μg), gentisic acid (1 mg), and a 0.2 mol/L sodium acetate buffer solution (pH 4.0) (5.0 μL). The solution was heated to 100° C. for 15 minutes and left to stand for 5 minutes at room temperature, thereby obtaining [^64Cu]-(compound B). […] The radiochemical purity measured immediately after the compound was prepared and measured after 24 hours at room temperature was equal to or higher than 90%.
A gallium [^67Ga] chloride solution (200 MBq, 63 μL) was added to a mixed solution of the compound A (21 μg), gentisic acid (1.0 mg), a 0.2 mol/L sodium acetate buffer solution (pH 4.0, 730.7 μL), and 4.5 mol/L aqueous sodium hydroxide solution (6.3 μL). The solution was heated to 100° C. for 15 minutes and then left to stand for 5 minutes at room temperature, thereby obtaining [^67Ga]-(compound A).
A lutetium [^177Lu] chloride solution (666 MBq, 333 μL) dissolved in a 0.2 mol/L sodium acetate buffer solution (pH 4.0) was added to a mixed solution of the compound A (70.0 μg), gentisic acid (1.8 mg), and a 0.2 mol/L sodium acetate buffer solution (pH 4.0, 83.3 μL). The solution was heated to 100° C. for 15 minutes and then left to stand for 5 minutes at room temperature, thereby obtaining [^177Lu]-(compound A).
A gallium [^67Ga] chloride solution (40 MBq, 11.7 μL) was added to a mixed solution of the compound B (4.1 μg), gentisic acid (1.0 mg), a 0.2 mol/L sodium acetate buffer solution (pH 4.5, 147.13 μL), and 4.5 mol/L aqueous sodium hydroxide solution (1.17 μL). The solution was heated to 100° C. for 15 minutes and then left to stand for 5 minutes at room temperature, thereby obtaining [^67Ga]-(compound B).

Compound	IC50 (integrin αvβ3) [nM]	IC50 (integrin αvβ5) [nM]	Radioactivity concentration in tumor After 4 hours (U87MG cells [1]; 4 hours) [% ID/g]	Radioactivity concentration in tumor After 24 hours (U87MG cells [1]; 24 hours) [% ID/g]	radioactivity concentration in tumor at the time of dissection (U87MG cells [2]) [% ID/g]	Absorbed dose Brain [3] [mGy/MBq]	Absorbed dose Kidney [3] [mGy/MBq]	Absorbed dose Liver [3] [mGy/MBq]	Absorbed dose Lung [3] [mGy/MBq]	Absorbed dose Red marrow [3] [mGy/MBq]	Absorbed dose Small intestine [3] [mGy/MBq]	Absorbed dose Whole body [3] [mGy/MBq]	radiochemical purity immediately after preparation and after 22 hours at room temperature [4] [%]
Cc1cc(OCCCC(=O)NCCNC(=O)[C@H](CS(=O)(=O)O)NC(=O)CC[C@H](C(=O)O)N2CCN(CC(=O)O)CCN(CC(=O)O)CC2)cc(C)c1S(=O)(=O)N[C@@H](CNC(=O)CCCCc1ccc2c(n1)NCCC2)C(=O)O [Compound B, 2,2′-(7-((R)-1-carboxy-4-(((R)-1-((2-(4-(4-(N—((S)-1-carboxy-2-(5-(5,6,7,8-tetrahydro-1,8-naphthyridin-2-yl)pentanamide)ethyl)sulfamoyl)-3,5-dimethylphenoxy)butanamide)ethyl)amino)-1-oxo-3-sulfopropan-2-yl)amino)-4-oxobutyl)-1,4,7-triazonane-1,4-diyl)diacetic acid]	< 1	< 1	–	–	–	–	–	–	–	–	–	–	–
Cc1cc(OCCCC(=O)NCCNC(=O)[C@H](CS(=O)(=O)O)NC(=O)CN2CCN(CC(=O)O)CCN(CC(=O)O)CCN(CC(=O)O)CC2)cc(C)c1S(=O)(=O)N[C@@H](CNC(=O)CCCCc1ccc2c(n1)NCCC2)C(=O)O [Compound A, 2,2′,2″-(10-(2-(((R)-1-((2-(4-(4-(N—((S)-1-carboxy-2-(5-(5,6,7,8-tetrahydro-1,8-naphthyridin-2-yl)pentanamide)ethyl)sulfamoyl)-3,5-dimethylphenoxy)butanamide)ethyl)amino)-1-oxo-3-sulfopropan-2-yl)amino)-2-oxoethyl)-1,4,7,10-tetraazacyclododecane-1,4,7-triyl)triacetic acid]	< 1	< 1	–	–	–	–	–	–	–	–	–	–	–
Cc1cc(OCCCC(=O)NCCNC(=O)C(CS(=O)(=O)O)NC(=O)CN2CCN(CC(=O)[O-])CCN(CC(=O)O)CCN(CC(=O)[O-])CC2)cc(C)c1S(=O)(=O)NC(CNC(=O)CCCCc1ccc2c(n1)NCCC2)C(=O)O.[64Cu+2] (stereo not drawn) [[^64Cu]-(compound A)]	–	–	9.25	8.48	5.6	0.11	0.69	0.09	0.08	0.01	0.06	0.02	≥ 90
